Experimental data published in PMC6409085, “Three odorant-binding proteins are involved in the behavioral response of Sogatella furcifera to rice plant volatiles” (PeerJ, 2019).
Several values for one entry are separate records, joined by “and”; a condition that tells them apart may be missing. Equal entries are not always repeated.

Key:
SfurOBP1 = SfurOBP1 (Sogatella furcifera, UniProt V5T8N5); assay: biochemical; format: binding; settings: for Fluorescence competitive binding assay, fluorescence intensity: OBP1, three replicate columns
SfurOBP1, sequence (V5T8N5 entry or part of it): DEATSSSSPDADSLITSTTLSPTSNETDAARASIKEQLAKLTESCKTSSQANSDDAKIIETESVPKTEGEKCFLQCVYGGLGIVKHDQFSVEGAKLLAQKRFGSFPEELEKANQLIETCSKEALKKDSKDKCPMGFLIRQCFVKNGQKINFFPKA
Outline: (§1)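 First, 2.0 µM protein in 50 mM Tris-HCl (pH 7.4) was titrated with 1-NPN to obtain K1-NPN. Then odorants (2–20 µM final) competed against 2.0 µM 1-NPN, with fluorescence (ex 337 nm) recorded after 2 min. Ki was computed from IC50 via Ki = IC50/(1 + [1-NPN]/K1-NPN).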

SfurOBP3 = SfurOBP3 (Sogatella furcifera, UniProt V5T818); assay: biochemical; format: binding; settings: for Fluorescence competitive binding assay, fluorescence intensity: OBP3, three replicate columns
SfurOBP3, sequence (V5T818 entry or part of it): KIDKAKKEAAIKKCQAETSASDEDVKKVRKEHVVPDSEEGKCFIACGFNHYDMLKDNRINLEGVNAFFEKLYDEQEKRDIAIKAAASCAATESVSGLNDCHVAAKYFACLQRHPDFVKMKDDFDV
Outline: as §1

SfurOBP11 = SfurOBP11 (Sogatella furcifera, UniProt V5T6E3); assay: biochemical; format: binding
SfurOBP11, sequence (V5T6E3 entry or part of it): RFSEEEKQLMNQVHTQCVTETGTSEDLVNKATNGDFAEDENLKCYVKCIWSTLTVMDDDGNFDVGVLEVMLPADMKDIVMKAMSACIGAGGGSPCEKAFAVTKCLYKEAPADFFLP
Outline: as §1

SfurOBP2 = SfurOBP2 (Sogatella furcifera, UniProt V5T759); assay: biochemical; format: binding
SfurOBP2, sequence (V5T759 entry or part of it): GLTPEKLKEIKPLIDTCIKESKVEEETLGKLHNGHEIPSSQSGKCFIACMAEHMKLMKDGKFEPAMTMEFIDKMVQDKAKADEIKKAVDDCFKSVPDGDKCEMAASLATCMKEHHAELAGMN
Outline: as §1

S. furcifera adults = assay: Y-tube olfactometer behavioral trials; format: in vivo, Sogatella furcifera; settings: odorant 50 µL/L vs hexane; adults
Outline: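 Single S. furcifera adults (2 days post-emergence, starved 0.5 h) chose between odorant (100 µL of 50 µL/L on filter paper) and hexane control in a glass Y-tube, charcoal-filtered humidified air 300 mL/min per arm, 25 ± 1 °C, 50% RH. Choice scored if insect passed half an arm and stayed >1 min within 10 min; 45 insects per compound, chi-squared test.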

- Fluorescence competitive binding assay, fluorescence intensity (SfurOBP1; ligand concentration 2 (μM)): 7938 and 8209 and 9100
- Fluorescence competitive binding assay, fluorescence intensity (SfurOBP1; ligand concentration 4 (μM)): 8199 and 9497 and 8248
- Fluorescence competitive binding assay, fluorescence intensity (SfurOBP1; ligand concentration 6 (μM)): 9970 and 9490 and 9404
- Fluorescence competitive binding assay, fluorescence intensity (SfurOBP1; ligand concentration 8 (μM)): 9879 and 9942 and 9021
- Fluorescence competitive binding assay, fluorescence intensity (SfurOBP1; ligand concentration 10 (μM)): 11694 and 10870 and 12178
- Fluorescence competitive binding assay, fluorescence intensity (SfurOBP1; ligand concentration 12 (μM)): 10792 and 13471 and 12081
- Fluorescence competitive binding assay, fluorescence intensity (SfurOBP1; ligand concentration 14 (μM)): 13762 and 12603 and 7069
- Fluorescence competitive binding assay, fluorescence intensity (SfurOBP1; ligand concentration 16 (μM)): 15566 and 12262 and 13672
- Fluorescence competitive binding assay, fluorescence intensity (SfurOBP1; ligand concentration 18 (μM)): 13469 and 13374 and 13884
- Fluorescence competitive binding assay, fluorescence intensity (SfurOBP1; ligand concentration 20 (μM)): 16296 and 16551 and 15519
- IC50 (SfurOBP1; SfurOBP1, protein and 1-NPN both 2.0 µM, competitor 2-20 µM, read-out: IC50): > 20 µM
- Fluorescence competitive binding assay, fluorescence intensity (SfurOBP3; ligand concentration 2): 42528 and 41583 and 43473
- Fluorescence competitive binding assay, fluorescence intensity (SfurOBP3; ligand concentration 4): 41210 and 39055 and 38819
- Fluorescence competitive binding assay, fluorescence intensity (SfurOBP3; ligand concentration 6): 40763 and 42069 and 38391
- Fluorescence competitive binding assay, fluorescence intensity (SfurOBP3; ligand concentration 8): 40006 and 42611 and 39486
- Fluorescence competitive binding assay, fluorescence intensity (SfurOBP3; ligand concentration 10): 37952 and 40731 and 37192
- Fluorescence competitive binding assay, fluorescence intensity (SfurOBP3; ligand concentration 12): 41103 and 37710 and 38844
- Fluorescence competitive binding assay, fluorescence intensity (SfurOBP3; ligand concentration 14): 39070 and 39869 and 40524
- Fluorescence competitive binding assay, fluorescence intensity (SfurOBP3; ligand concentration 16): 39064 and 38170 and 38620
- Fluorescence competitive binding assay, fluorescence intensity (SfurOBP3; ligand concentration 18): 39885 and 40160 and 39604
- Fluorescence competitive binding assay, fluorescence intensity (SfurOBP3; ligand concentration 20): 39750 and 40400 and 40150
- IC50 (SfurOBP3; SfurOBP3, protein and 1-NPN both 2.0 µM, competitor 2-20 µM, read-out: IC50): > 20 µM
- IC50 (SfurOBP11; SfurOBP11, protein and 1-NPN both 2.0 µM, competitor 2-20 µM, read-out: IC50): > 20 µM
- Fluorescence intensity, fluorescence competitive binding assay, OBP11 (SfurOBP11; ligand concentration 2, replicate 1): 24967
- Fluorescence intensity, fluorescence competitive binding assay, OBP11 (SfurOBP11; ligand concentration 2, replicate 2): 25926
- Fluorescence intensity, fluorescence competitive binding assay, OBP11 (SfurOBP11; ligand concentration 2, replicate 3): 30699
- Fluorescence intensity, fluorescence competitive binding assay, OBP11 (SfurOBP11; ligand concentration 4, replicate 1): 25125
- Fluorescence intensity, fluorescence competitive binding assay, OBP11 (SfurOBP11; ligand concentration 4, replicate 2): 27382
- Fluorescence intensity, fluorescence competitive binding assay, OBP11 (SfurOBP11; ligand concentration 4, replicate 3): 26896
- Fluorescence intensity, fluorescence competitive binding assay, OBP11 (SfurOBP11; ligand concentration 6, replicate 1): 26493
- Fluorescence intensity, fluorescence competitive binding assay, OBP11 (SfurOBP11; ligand concentration 6, replicate 2): 26335
- Fluorescence intensity, fluorescence competitive binding assay, OBP11 (SfurOBP11; ligand concentration 6, replicate 3): 26650
- Fluorescence intensity, fluorescence competitive binding assay, OBP11 (SfurOBP11; ligand concentration 8, replicate 1): 24847
- Fluorescence intensity, fluorescence competitive binding assay, OBP11 (SfurOBP11; ligand concentration 8, replicate 2): 24250
- Fluorescence intensity, fluorescence competitive binding assay, OBP11 (SfurOBP11; ligand concentration 8, replicate 3): 25420
- Fluorescence intensity, fluorescence competitive binding assay, OBP11 (SfurOBP11; ligand concentration 10, replicate 1): 24577
- Fluorescence intensity, fluorescence competitive binding assay, OBP11 (SfurOBP11; ligand concentration 10, replicate 2): 24121
- Fluorescence intensity, fluorescence competitive binding assay, OBP11 (SfurOBP11; ligand concentration 10, replicate 3): 25032
- Fluorescence intensity, fluorescence competitive binding assay, OBP11 (SfurOBP11; ligand concentration 12, replicate 1): 26676
- Fluorescence intensity, fluorescence competitive binding assay, OBP11 (SfurOBP11; ligand concentration 12, replicate 2): 27183
- Fluorescence intensity, fluorescence competitive binding assay, OBP11 (SfurOBP11; ligand concentration 12, replicate 3): 26168
- Fluorescence intensity, fluorescence competitive binding assay, OBP11 (SfurOBP11; ligand concentration 14, replicate 1): 24529
- Fluorescence intensity, fluorescence competitive binding assay, OBP11 (SfurOBP11; ligand concentration 14, replicate 2): 23823
- Fluorescence intensity, fluorescence competitive binding assay, OBP11 (SfurOBP11; ligand concentration 14, replicate 3): 25235
- Fluorescence intensity, fluorescence competitive binding assay, OBP11 (SfurOBP11; ligand concentration 16, replicate 1): 23763
- Fluorescence intensity, fluorescence competitive binding assay, OBP11 (SfurOBP11; ligand concentration 16, replicate 2): 25792
- Fluorescence intensity, fluorescence competitive binding assay, OBP11 (SfurOBP11; ligand concentration 16, replicate 3): 24713
- Fluorescence intensity, fluorescence competitive binding assay, OBP11 (SfurOBP11; ligand concentration 18, replicate 1): 29957
- Fluorescence intensity, fluorescence competitive binding assay, OBP11 (SfurOBP11; ligand concentration 18, replicate 2): 29942
- Fluorescence intensity, fluorescence competitive binding assay, OBP11 (SfurOBP11; ligand concentration 18, replicate 3): 30678
- Fluorescence intensity, fluorescence competitive binding assay, OBP11 (SfurOBP11; ligand concentration 20, replicate 1): 31322
- Fluorescence intensity, fluorescence competitive binding assay, OBP11 (SfurOBP11; ligand concentration 20, replicate 2): 31721
- Fluorescence intensity, fluorescence competitive binding assay, OBP11 (SfurOBP11; ligand concentration 20, replicate 3): 27795
- IC50 (SfurOBP2; SfurOBP2, protein and 1-NPN both 2.0 µM, competitor 2-20 µM, read-out: IC50): > 20 µM
- Fluorescence competitive binding assay, OBP2 (raw fluorescence reading) (SfurOBP2; ligand concentration 2 (unit not given), replicate column 1 of 3): 15375
- Fluorescence competitive binding assay, OBP2 (raw fluorescence reading) (SfurOBP2; ligand concentration 2 (unit not given), replicate column 2 of 3): 16260
- Fluorescence competitive binding assay, OBP2 (raw fluorescence reading) (SfurOBP2; ligand concentration 2 (unit not given), replicate column 3 of 3): 17114
- Fluorescence competitive binding assay, OBP2 (raw fluorescence reading) (SfurOBP2; ligand concentration 4 (unit not given), replicate column 1 of 3): 15250
- Fluorescence competitive binding assay, OBP2 (raw fluorescence reading) (SfurOBP2; ligand concentration 4 (unit not given), replicate column 2 of 3): 17637
- Fluorescence competitive binding assay, OBP2 (raw fluorescence reading) (SfurOBP2; ligand concentration 4 (unit not given), replicate column 3 of 3): 17949
- Fluorescence competitive binding assay, OBP2 (raw fluorescence reading) (SfurOBP2; ligand concentration 6 (unit not given), replicate column 1 of 3): 17180
- Fluorescence competitive binding assay, OBP2 (raw fluorescence reading) (SfurOBP2; ligand concentration 6 (unit not given), replicate column 2 of 3): 18194
- Fluorescence competitive binding assay, OBP2 (raw fluorescence reading) (SfurOBP2; ligand concentration 6 (unit not given), replicate column 3 of 3): 18919
- Fluorescence competitive binding assay, OBP2 (raw fluorescence reading) (SfurOBP2; ligand concentration 8 (unit not given), replicate column 1 of 3): 15100
- Fluorescence competitive binding assay, OBP2 (raw fluorescence reading) (SfurOBP2; ligand concentration 8 (unit not given), replicate column 2 of 3): 16066
- Fluorescence competitive binding assay, OBP2 (raw fluorescence reading) (SfurOBP2; ligand concentration 8 (unit not given), replicate column 3 of 3): 16289
- Fluorescence competitive binding assay, OBP2 (raw fluorescence reading) (SfurOBP2; ligand concentration 10 (unit not given), replicate column 1 of 3): 16213
- Fluorescence competitive binding assay, OBP2 (raw fluorescence reading) (SfurOBP2; ligand concentration 10 (unit not given), replicate column 2 of 3): 16940
- Fluorescence competitive binding assay, OBP2 (raw fluorescence reading) (SfurOBP2; ligand concentration 10 (unit not given), replicate column 3 of 3): 17695
- Fluorescence competitive binding assay, OBP2 (raw fluorescence reading) (SfurOBP2; ligand concentration 12 (unit not given), replicate column 1 of 3): 14964
- Fluorescence competitive binding assay, OBP2 (raw fluorescence reading) (SfurOBP2; ligand concentration 12 (unit not given), replicate column 2 of 3): 18259
- Fluorescence competitive binding assay, OBP2 (raw fluorescence reading) (SfurOBP2; ligand concentration 12 (unit not given), replicate column 3 of 3): 16491
- Fluorescence competitive binding assay, OBP2 (raw fluorescence reading) (SfurOBP2; ligand concentration 14 (unit not given), replicate column 1 of 3): 16687
- Fluorescence competitive binding assay, OBP2 (raw fluorescence reading) (SfurOBP2; ligand concentration 14 (unit not given), replicate column 2 of 3): 18876
- Fluorescence competitive binding assay, OBP2 (raw fluorescence reading) (SfurOBP2; ligand concentration 14 (unit not given), replicate column 3 of 3): 18074
- Fluorescence competitive binding assay, OBP2 (raw fluorescence reading) (SfurOBP2; ligand concentration 16 (unit not given), replicate column 1 of 3): 17882
- Fluorescence competitive binding assay, OBP2 (raw fluorescence reading) (SfurOBP2; ligand concentration 16 (unit not given), replicate column 2 of 3): 16512
- Fluorescence competitive binding assay, OBP2 (raw fluorescence reading) (SfurOBP2; ligand concentration 16 (unit not given), replicate column 3 of 3): 18645
- Fluorescence competitive binding assay, OBP2 (raw fluorescence reading) (SfurOBP2; ligand concentration 18 (unit not given), replicate column 1 of 3): 18334
- Fluorescence competitive binding assay, OBP2 (raw fluorescence reading) (SfurOBP2; ligand concentration 18 (unit not given), replicate column 2 of 3): 17452
- Fluorescence competitive binding assay, OBP2 (raw fluorescence reading) (SfurOBP2; ligand concentration 18 (unit not given), replicate column 3 of 3): 17782
- Fluorescence competitive binding assay, OBP2 (raw fluorescence reading) (SfurOBP2; ligand concentration 20 (unit not given), replicate column 1 of 3): 16896
- Fluorescence competitive binding assay, OBP2 (raw fluorescence reading) (SfurOBP2; ligand concentration 20 (unit not given), replicate column 2 of 3): 19235
- Fluorescence competitive binding assay, OBP2 (raw fluorescence reading) (SfurOBP2; ligand concentration 20 (unit not given), replicate column 3 of 3): 19174
Structure (SMILES): CCCCCCCCCCCCC=O [tridecanal]
- number of insects choosing hexane arm (S. furcifera adults): 11
- number of insects choosing volatilies arm (S. furcifera adults): 13
- number of insects failed (no choice) (S. furcifera adults): 16
